This note sets out measurements from ChEMBL document CHEMBL3400089, “Studies on antimicrobial effects of four ligands and their transition metal complexes with 8-mercaptoquinoline and pyridine terminal groups” (2015).

Values after ≈ are worked out from the molar mass of the structure shown. Counter-ions that a name gives are not always drawn.

Holding throughout (assay type): functional
For one assay, the system named is Sporosarcina ureae. Description: Antimicrobial activity against Sarcina ureae after 24 hrs by two fold serial microdilution method. A general note: In broth dilution the organism is exposed to a series of concentrations in liquid medium.
The test system of a further assay is Pseudomonas aeruginosa. Description: Antimicrobial activity against Pseudomonas aeruginosa after 24 hrs by two fold serial microdilution method.
In another assay the test system is Escherichia coli. The assay is described as follows: Antimicrobial activity against Escherichia coli ATCC 25922 after 24 hrs by two fold serial microdilution method. The following applies: ATCC 25922, 24 h.
Another assay relates to Staphylococcus aureus. The assay is described as follows: Antimicrobial activity against Staphylococcus aureus ATCC 27154 after 24 hrs by two fold serial microdilution method. The conditions noted are these: ATCC 27154, 24 h.
Another assay has as its system Aspergillus niger. The assay is described as follows: Antimicrobial activity against Aspergillus niger after 48 hrs by two fold serial microdilution method.
The next assay concerns Saccharomyces cerevisiae. Description: Antimicrobial activity against Saccharomyces cerevisiae after 48 hrs by two fold serial microdilution method.
Assay [1] concerns Fusarium oxysporum f. sp. cubense. Description: Antimicrobial activity against Fusarium oxysporum f. sp. cubense after 48 hrs by two fold serial microdilution method.

For orientation: MIC means the least concentration at which growth counts as inhibited. Higher therefore signals a less susceptible organism. `c1ccc(CSc2cccc3cccnc23)nc1`: the MIC against Sporosarcina ureae is more than 198 µM; against Pseudomonas aeruginosa it was more than 198 µM; against Escherichia coli, 49.5 µM (≈ 12.5 µg/mL); against Staphylococcus aureus, more than 198 µM.

Regarding `c1cnc2c(SCc3ccncc3)cccc2c1`, the MIC was more than 198 µM in the assay on Sporosarcina ureae, more than 198 µM in the assay with Pseudomonas aeruginosa, 24.8 µM (≈ 6.26 µg/mL) with Escherichia coli and more than 198 µM in the assay with Staphylococcus aureus.

On to `c1cc(CSc2cccc3cccnc23)nc(CSc2cccc3cccnc23)c1`, for which the MIC in the assay with Sporosarcina ureae is more than 117 µM; against Pseudomonas aeruginosa, more than 117 µM; with Escherichia coli it was 7.35 µM (≈ 3.13 µg/mL); against Staphylococcus aureus, more than 117 µM.

Regarding `c1cncc(CSc2cccc3cccnc23)c1`, the MIC with Sporosarcina ureae was more than 198 µM; against Pseudomonas aeruginosa, more than 198 µM; in the assay with Escherichia coli, 99.1 µM (≈ 25 µg/mL); in the assay on Staphylococcus aureus, more than 198 µM; against Aspergillus niger it was more than 495 µM; against Saccharomyces cerevisiae, more than 495 µM. In assay [1], the MIC was more than 495 µM.

`CC1(C)S[C@@H]2[C@H](NC(=O)[C@H](N)c3ccccc3)C(=O)N2[C@H]1C(=O)O` [AMPICILLIN]: the MIC against Sporosarcina ureae amounted to 17.4 µM (≈ 6.08 µg/mL); in the assay on Pseudomonas aeruginosa it was 17.4 µM (≈ 6.08 µg/mL); in the assay with Escherichia coli, 34.7 µM (≈ 12.1 µg/mL); with Staphylococcus aureus it was 69.4 µM (≈ 24.2 µg/mL).

As to NYSTATIN, the MIC with Aspergillus niger is 14.1 µM; with Saccharomyces cerevisiae, 14.1 µM; in assay [1], 28.2 µM.

With `CN[C@@H]1[C@H](O[C@H]2[C@H](O[C@H]3[C@H](O)[C@@H](O)[C@H](N=C(N)N)[C@@H](O)[C@@H]3N=C(N)N)O[C@@H](C)[C@]2(O)C=O)O[C@@H](CO)[C@H](O)[C@H]1O` [STREPTOMYCIN SULFATE], the MIC is 2.14 µM in the assay with Sporosarcina ureae, 1.07 µM in the assay on Pseudomonas aeruginosa, 2.14 µM in the assay with Escherichia coli and 1.07 µM with Staphylococcus aureus.
